Values joined by “and” are separate entries in the source; they are usually repeats but may differ in a detail not shown here. Equal values may be shown once. Toxic doses and inconclusive results are not listed. How the source made its calls: active means survival T/C of 150% or more; inactive means T/C below 125% in these data.
Tested on: P388 leukemia ip, CD2F1 mice, survival T/C
Experiment: NCI In Vivo Anticancer Drug Screen. Data for tumor model P388 Leukemia (intraperitoneal) in CD2F1 (CDF1) mice
Conditions: endpoint: median survival time, higher = longer survival
Method in brief: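 Mice carrying the transplanted tumor received test compound or vehicle. Survival was recorded in each group, and the value is the treated-group measurement divided by that of the vehicle-treated control group.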

[1] = dose: 50.0 mg/kg/injection, schedule: Q01DX009 (ip), vehicle: saline
[2] = dose: 50.0 mg/kg/injection, schedule: Q01DX005 (ip), vehicle: saline with Tween-80
[3] = dose: 100.0 mg/kg/injection, schedule: Q01DX005 (ip), vehicle: saline with Tween-80
[4] = dose: 200.0 mg/kg/injection, schedule: Q01DX005 (ip), vehicle: saline with Tween-80
[5] = dose: 50.0 mg/kg/injection, schedule: Q01DX009 (ip), vehicle: saline + Tween-80 + alcohol
[6] = dose: 100.0 mg/kg/injection, schedule: Q01DX009 (ip), vehicle: saline + Tween-80 + alcohol

Measured: T/C

N#C[C@H](OC1OC(COC2OC(CO)C(O)C(O)C2O)C(O)C(O)C1O)c1ccccc1 (stereo not given in full)
inactive: dose: 6.25 mg/kg/injection, schedule: Q01DX009 (oral), vehicle: water 91 % of control | dose: 12.5 mg/kg/injection, schedule: Q01DX009 (oral), vehicle: saline 98 % of control | dose: 12.5 mg/kg/injection, schedule: Q01DX009 (oral), vehicle: water 95 % of control | dose: 25.0 mg/kg/injection, schedule: Q01DX009 (ip), vehicle: saline 100 % of control | dose: 25.0 mg/kg/injection, schedule: Q01DX009 (ip), vehicle: water 105 % of control | dose: 25.0 mg/kg/injection, schedule: Q01DX009 (oral), vehicle: saline 115 % of control | dose: 25.0 mg/kg/injection, schedule: Q01DX009 (oral), vehicle: water 93 % of control | [1] 100 % of control and 112 % of control | dose: 50.0 mg/kg/injection, schedule: Q01DX009 (ip), vehicle: water 97 % of control | dose: 50.0 mg/kg/injection, schedule: Q01DX009 (oral), vehicle: saline 118 % of control | dose: 50.0 mg/kg/injection, schedule: Q01DX009 (oral), vehicle: suspension in saline 104 % of control | dose: 50.0 mg/kg/injection, schedule: Q01DX009 (oral), vehicle: water 96 % of control | dose: 100.0 mg/kg/injection, schedule: Q01DX009 (ip), vehicle: saline 104 % of control and 107 % of control | dose: 100.0 mg/kg/injection, schedule: Q01DX009 (ip), vehicle: water 100 % of control | dose: 100.0 mg/kg/injection, schedule: Q01DX009 (oral), vehicle: saline 101 % of control | dose: 100.0 mg/kg/injection, schedule: Q01DX009 (oral), vehicle: suspension in saline 100 % of control and 107 % of control | dose: 100.0 mg/kg/injection, schedule: Q01DX009 (oral), vehicle: water 105 % of control and 93 % of control | dose: 200.0 mg/kg/injection, schedule: Q01DX009 (ip), vehicle: saline 100 % of control and 109 % of control | dose: 200.0 mg/kg/injection, schedule: Q01DX009 (ip), vehicle: water 101 % of control | dose: 200.0 mg/kg/injection, schedule: Q01DX009 (oral), vehicle: saline 100 % of control | dose: 200.0 mg/kg/injection, schedule: Q01DX009 (oral), vehicle: water 102 % of control and 104 % of control | dose: 400.0 mg/kg/injection, schedule: Q01DX009 (ip), vehicle: saline 102 % of control and 109 % of control | dose: 400.0 mg/kg/injection, schedule: Q01DX009 (ip), vehicle: water 100 % of control | dose: 400.0 mg/kg/injection, schedule: Q01DX009 (oral), vehicle: suspension in saline 100 % of control | dose: 800.0 mg/kg/injection, schedule: Q01DX009 (ip), vehicle: saline 102 % of control and 108 % of control | dose: 800.0 mg/kg/injection, schedule: Q01DX009 (ip), vehicle: water 102 % of control

CCOC(OCC)C(N)=O
inactive: [2] 105 % of control | [3] 109 % of control | [4] 100 % of control

COC(=O)C1=C(C(=O)OC)C2CC3C4CC=C5CC(OC(C)=O)CCC5(C)C4CCC3(C)C2=C(OC(C)=O)C1 (stereo not given)
inactive: [2] 90 % of control | [3] 87 % of control

O=C1C2C3C=CC(C2C(=O)N1COP(=O)(OCc1ccccc1)OCc1ccccc1)C1C2C(=O)N(COP(=O)(OCc4ccccc4)OCc4ccccc4)C(=O)C2C31 (stereo not given)
inactive: dose: 6.25 mg/kg/injection, schedule: Q01DX009 (ip), vehicle: saline + Tween-80 + alcohol 99 % of control | dose: 12.5 mg/kg/injection, schedule: Q01DX009 (ip), vehicle: saline + Tween-80 + alcohol 105 % of control | dose: 25.0 mg/kg/injection, schedule: Q01DX009 (ip), vehicle: saline + Tween-80 + alcohol 103 % of control | [5] 106 % of control | dose: 75.0 mg/kg/injection, schedule: Q01DX008 (ip), vehicle: saline + Tween-80 + alcohol 109 % of control | [6] 107 % of control | dose: 150.0 mg/kg/injection, schedule: Q01DX008 (ip), vehicle: saline + Tween-80 + alcohol 99 % of control | dose: 300.0 mg/kg/injection, schedule: Q01DX008 (ip), vehicle: saline + Tween-80 + alcohol 100 % of control

CCOC(=O)CC1(O)CS/C(=C(\C#N)C(=O)OCC)N1c1ccccc1 (stereo not given)
inactive: [2] 96 % of control | [3] 100 % of control | [4] 96 % of control

CC(C)N(C(=O)c1cccc(C(=O)N(C(C)C)C(C)C)n1)C(C)C
inactive: dose: 60.0 mg/kg/injection, schedule: Q01DX005 (ip), vehicle: saline with Tween-80 101 % of control | dose: 120.0 mg/kg/injection, schedule: Q01DX005 (ip), vehicle: saline with Tween-80 95 % of control | dose: 240.0 mg/kg/injection, schedule: Q01DX005 (ip), vehicle: saline with Tween-80 95 % of control

COc1c2c(c(O)c3c1C(=O)c1cccc(O)c1C3=O)C(OC1CC(N)C(O)C(C)O1)CC(O)(C(C)=O)C2 (stereo not given)
inactive: dose: 12.5 mg/kg/injection, schedule: Q04DX003 (ip), vehicle: water 118 % of control | dose: 25.0 mg/kg/injection, schedule: Q04DX003 (ip), vehicle: water 118 % of control | dose: 50.0 mg/kg/injection, schedule: Q04DX003 (ip), vehicle: water 100 % of control

Cc1ccc(S(=O)(=O)NN=c2c3ccccc3ccc3ccccc23)cc1
inactive: dose: 100.0 mg/kg/injection, schedule: Q04DX002 (ip), vehicle: Klucel (hydroxypropylcellulose) (HPC) 94 % of control | dose: 200.0 mg/kg/injection, schedule: Q04DX002 (ip), vehicle: Klucel (hydroxypropylcellulose) (HPC) 91 % of control | dose: 400.0 mg/kg/injection, schedule: Q04DX002 (ip), vehicle: Klucel (hydroxypropylcellulose) (HPC) 90 % of control

CSC1(C)C(=O)Nc2cccc([N+](=O)[O-])c21 (stereo not given)
inactive: dose: 100.0 mg/kg/injection, schedule: Q01DX001 (ip), vehicle: saline with Tween-80 100 % of control | dose: 200.0 mg/kg/injection, schedule: Q01DX001 (ip), vehicle: saline with Tween-80 93 % of control | dose: 400.0 mg/kg/injection, schedule: Q01DX001 (ip), vehicle: saline with Tween-80 100 % of control

Cc1nc(Cl)c(C)c(C(=O)O)n1
inactive: dose: 6.25 mg/kg/injection, schedule: Q01DX009 (ip), vehicle: other 117 % of control | dose: 12.5 mg/kg/injection, schedule: Q01DX009 (ip), vehicle: other 114 % of control | dose: 25.0 mg/kg/injection, schedule: Q01DX009 (ip), vehicle: other 107 % of control | dose: 50.0 mg/kg/injection, schedule: Q01DX009 (ip), vehicle: other 99 % of control | dose: 100.0 mg/kg/injection, schedule: Q01DX009 (ip), vehicle: other 98 % of control

COc1cc(O)c(Cc2ccc3c(c2)OCO3)cc1O
inactive: dose: 2.5 mg/kg/injection, schedule: Q01DX009 (ip), vehicle: saline with Tween-80 100 % of control | dose: 5.0 mg/kg/injection, schedule: Q01DX009 (ip), vehicle: saline with Tween-80 100 % of control | dose: 10.0 mg/kg/injection, schedule: Q01DX009 (ip), vehicle: saline with Tween-80 115 % of control

Cc1ccc(S(=O)(=O)NC(=O)ON2CCCCC2)cc1
inactive: [5] 95 % of control | [6] 95 % of control | dose: 200.0 mg/kg/injection, schedule: Q01DX009 (ip), vehicle: saline + Tween-80 + alcohol 92 % of control

BrCC[P+](c1ccccc1)(c1ccccc1)c1ccccc1
inactive: dose: 1.56 mg/kg/injection, schedule: Q01DX009 (ip), vehicle: water 115 % of control | dose: 3.0 mg/kg/injection, schedule: Q01DX009 (ip), vehicle: water 120 % of control | dose: 6.25 mg/kg/injection, schedule: Q01DX009 (ip), vehicle: water 118 % of control

CC(=O)OCC#CCN1CCCCC1C (stereo not given)
inactive: dose: 50.0 mg/kg/injection, schedule: Q01DX005 (ip), vehicle: saline 111 % of control | dose: 100.0 mg/kg/injection, schedule: Q01DX005 (ip), vehicle: saline 101 % of control | dose: 200.0 mg/kg/injection, schedule: Q01DX005 (ip), vehicle: saline 103 % of control

CN(CCc1ccccn1)c1ccc2c(c1)C(=O)c1ccccc1-2
inactive: [2] 100 % of control | [3] 93 % of control

COc1ccc(Br)c(C(=O)N2CCc3ccccc32)c1OS(=O)(=O)c1ccc(C)cc1
inactive: dose: 25.0 mg/kg/injection, schedule: Q01DX009 (ip), vehicle: distilled water + Tween-80 98 % of control | dose: 50.0 mg/kg/injection, schedule: Q01DX009 (ip), vehicle: distilled water + Tween-80 100 % of control | dose: 100.0 mg/kg/injection, schedule: Q01DX009 (ip), vehicle: distilled water + Tween-80 91 % of control | dose: 200.0 mg/kg/injection, schedule: Q01DX009 (ip), vehicle: distilled water + Tween-80 89 % of control | dose: 400.0 mg/kg/injection, schedule: Q01DX009 (ip), vehicle: distilled water + Tween-80 95 % of control

O=c1[nH]c2c(ccc3cnccc32)c2c1CCC2
inactive: dose: 12.5 mg/kg/injection, schedule: Q01DX009 (ip), vehicle: saline 122 % of control | [1] 94 % of control

Source: PubChem BioAssay AID330 (DTP/NCI, 2004)
